How the values were obtained:
Format in all cases: in vivo
beet = experiment: Test Example 5: effect on crop by foliage application, plastic box (symbol f); settings: 320 g/ha, 3 weeks after application
Method in brief: (§1)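 Seeds were sown in spots in sterilized diluvial soil held in a plastic box 21 cm × 13 cm × 7 cm deep, covered with about 1.5 cm of soil, and grown in a greenhouse at 25° C. to 30° C.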

soybean = experiment: Test Example 5: effect on crop by foliage application, plastic box (symbol d); settings: 320 g/ha, 3 weeks after application
Method in brief: as §1

corn = experiment: Test Example 5: effect on crop by foliage application, plastic box (symbol c); settings: 320 g/ha, 3 weeks after application
Method in brief: as §1

[1] = system: Echinochloa oryzacola Vasing.; experiment: Test Example 2: herbicidal activity, application during weed generation in submerged conditions (symbol A); settings: Table 23; application herbicide amount 320 g/ha; grade 0-5 by criteria of Test Example 1
Method in brief: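 Alluvial soil in pots was flooded to a 4 cm water depth and sown with a mix of the three weed species, then grown in a greenhouse at 25° C. to 30° C. At the one- to two-leaf stage, an emulsifiable formulation diluted in water to a set dose was applied to the water surface. Effects were scored visually 3 weeks later.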

Galium spurium = experiment: Test Example 5: herbicidal effect by foliage application, plastic box (symbol Q); settings: 320 g/ha, 3 weeks after application
Method in brief: (§2)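 Leaf-applied emulsion, water-diluted to a preset herbicide dose, on two-week-old seedlings raised in a 25° C. to 30° C. greenhouse; injury rated at 3 weeks using earlier criteria.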

Chenopodium album [2] = experiment: Test Example 5: herbicidal effect by foliage application, plastic box (symbol O); settings: 320 g/ha, 3 weeks after application
Method in brief: as §2

Leptochloa chinensis = experiment: Test Example 3: herbicidal effect by foliage application, Wagner pot (symbol D); settings: application herbicide amount 320 g/ha
Method in brief: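 Weeds and rice were sown in alluvial soil under 0.1–0.5 cm of standing water and grown for 14 days in a 25–30 °C greenhouse. An emulsion of the compound, diluted in water to a set dose, was sprayed evenly onto the foliage. Effect was scored against fixed criteria 3 weeks after treatment.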

Apera spica-venti = experiment: Test Example 5: herbicidal effect by foliage application, plastic box (symbol L); settings: 320 g/ha, 3 weeks after application
Method in brief: as §2

Digitaria ciliaris = experiment: Test Example 4: herbicidal effect by soil treatment (symbol F); settings: application herbicide amount 320 g/ha
Method in brief: (§3)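 Seeds were sown in sterilized diluvial soil, covered with about 1.5 cm of soil, and the soil surface was sprayed with a water-diluted emulsion of the compound at a predetermined rate. Plants grew in a greenhouse at 25° C. to 30° C.; effects were scored visually 3 weeks after application.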

Chenopodium album [3] = experiment: Test Example 4: herbicidal effect by soil treatment (symbol O); settings: application herbicide amount 320 g/ha
Method in brief: as §3

Abutilon theophrasti = experiment: Test Example 5: herbicidal effect by foliage application, plastic box (symbol M); settings: 320 g/ha, 3 weeks after application
Method in brief: as §2

Amaranthus retroflexus = experiment: Test Example 5: herbicidal effect by foliage application, plastic box (symbol N); settings: 320 g/ha, 3 weeks after application
Method in brief: as §2

Monochoria vaginalis = experiment: Test Example 1: herbicidal activity, application before weed generation in submerged conditions (symbol C); settings: application herbicide amount 320 g/ha
Method in brief: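 Steps: alluvial soil flooded to 4 cm; weed seeds sown together; rice seedlings (2.5 leaf) transplanted; diluted emulsion applied to water surface the same day as sowing; plants grown at 25–30 °C in greenhouse; herbicidal effect rated on a 0–5 scale at 3 weeks.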

Setaria viridis = experiment: Test Example 4: herbicidal effect by soil treatment (symbol G); settings: application herbicide amount 320 g/ha
Method in brief: as §3

rapeseed = experiment: Test Example 5: effect on crop by foliage application, plastic box (symbol g); settings: 320 g/ha, 3 weeks after application
Method in brief: as §1

Structure (SMILES) | f: beet, effect on crop grade (beet) | d: soybean, effect on crop grade (soybean) | c: corn, effect on crop grade (corn) | Herbicidal effect grade, A: Echinochloa oryzacola Vasing. [1] | Q: Galium spurium, herbicidal effect grade (Galium spurium) | O: Chenopodium album, herbicidal effect grade (Chenopodium album [2]) | herbicidal effect on D (Leptochloa chinensis), grade 0-5 (Leptochloa chinensis) | L: Apera spica-venti, herbicidal effect grade (Apera spica-venti) | F: Digitaria ciliaris, herbicidal effect grade (Digitaria ciliaris) | O: Chenopodium album, herbicidal effect grade (Chenopodium album [3]) | M: Abutilon theophrasti, herbicidal effect grade (Abutilon theophrasti) | N: Amaranthus retroflexus, herbicidal effect grade (Amaranthus retroflexus) | Herbicidal effect grade, C: Monochoria vaginalis (Monochoria vaginalis) | G: Setaria viridis, herbicidal effect grade (Setaria viridis) | g: rapeseed, effect on crop grade (rapeseed)
CCc1cc(C)cc(C)c1C1=C(O)CC(CC(C)=NOC)C1=O (stereo not shown) [6-007] | 0 (Herbicidal ratio of 5% or lower (almost no effect)) | 2 (Herbicidal ratio of 20% or higher and lower than 40%) | 5 (Herbicidal ratio of 90% or more (almost completely withered)) | 5 (Herbicidal ratio of 90% or more (almost completely withered)) | 0 (Herbicidal ratio of 5% or lower (almost no effect)) | 0 (Herbicidal ratio of 5% or lower (almost no effect)) | 5 (Herbicidal ratio of 90% or more (almost completely withered)) | 4 (Herbicidal ratio of 70% or higher and lower than 90%) | 5 (Herbicidal ratio of 90% or more (almost completely withered)) | 0 (Herbicidal ratio of 5% or lower (almost no effect)) | 1 (Herbicidal ratio of 5% or higher and lower than 20%) | 0 (Herbicidal ratio of 5% or lower (almost no effect)) | 1 (Herbicidal ratio of 5% or higher and lower than 20%) | 5 (Herbicidal ratio of 90% or more (almost completely withered)) | –
CC#Cc1cc(C)c(C2=C(O)CC(CC(C)=NOC)C2=O)c(CC)c1 (mixture of isomers) [6-006] | – | 0 (Herbicidal ratio of 5% or lower (almost no effect)) | 1 (Herbicidal ratio of 5% or higher and lower than 20%) | 5 (Herbicidal ratio of 90% or more (almost completely withered)) | 0 (Herbicidal ratio of 5% or lower (almost no effect)) | 0 (Herbicidal ratio of 5% or lower (almost no effect)) | 5 (Herbicidal ratio of 90% or more (almost completely withered)) | 3 (Herbicidal ratio of 40% or higher and lower than 70%) | 5 (Herbicidal ratio of 90% or more (almost completely withered)) | 0 (Herbicidal ratio of 5% or lower (almost no effect)) | 0 (Herbicidal ratio of 5% or lower (almost no effect)) | 0 (Herbicidal ratio of 5% or lower (almost no effect)) | 1 (Herbicidal ratio of 5% or higher and lower than 20%) | 5 (Herbicidal ratio of 90% or more (almost completely withered)) | 4 (Herbicidal ratio of 70% or higher and lower than 90%)

Source: patent US11000033B2, “Ketone or oxime compound, and herbicide” (NISSAN CHEMICAL CORPORATION, priority 2014, dated 2021)
